Reference: ChEMBL document CHEMBL1136554, “p38 Inhibitors: piperidine- and 4-aminopiperidine-substituted naphthyridinones, quinolinones, and dihydroquinazolinones” (Bioorg Med Chem Lett, 2003)

What was measured:
[1] = target: T1, MAP kinase p38 (Homo sapiens, UniProt O15264+Q15759+Q16539+P53778); assay: Inhibition of p38 MAP kinase; type: protein assay
[2] = target: T1, MAP kinase p38; assay: Inhibition of p38 kinase related TNF-alpha release; type: functional
[3] = Oral bioavailability in rat; type: ADME, organism-based; details: in vivo
[4] = Plasma clearance measured in rat; type: ADME, organism-based; details: read-out: Clp

SMILES | IC50 [1] | IC50 [2] | bioavailability [3] | clearance [4]
CC(C)N1CCC(Nc2cc(-c3ccccc3Cl)c3c(c2)N(c2c(Cl)cccc2Cl)C(=O)NC3)CC1 | 1.6 nM | 31 nM |  | 
CN1C2CCC1CC(Nc1cc(-c3ccccc3Cl)c3c(c1)N(c1c(Cl)cccc1Cl)C(=O)NC3)C2 (configuration not stated) | 0.4 nM | 20 nM |  | 
CC(C)N1CCC(c2cc(-c3ccc(F)cc3Cl)c3c(c2)N(c2c(Cl)cccc2Cl)C(=O)CC3)CC1 | 0.8 nM | 24 nM | 10% | 70 mL/min/kg
CC(C)N1CCC(Nc2cc3c(ccc(=O)n3-c3c(Cl)cccc3Cl)c(-c3ccccc3Cl)n2)CC1 | 1.1 nM | 51 nM |  | 
CN1C2CCC1CC(Nc1cc3c(ccc(=O)n3-c3c(Cl)cccc3Cl)c(-c3ccccc3Cl)n1)C2 (configuration not stated) | 0.4 nM | 24 nM | 8.5% | 38 mL/min/kg
CC1(C)CC(Nc2cc3c(ccc(=O)n3-c3c(Cl)cccc3Cl)c(-c3ccccc3Cl)n2)CC(C)(C)N1 | 0.8 nM | 10 nM | 5.9% | 9.4 mL/min/kg
CC(C)N1CCC(c2cc(-c3ccccc3Cl)c3ccc(=O)n(-c4c(Cl)cccc4Cl)c3c2)CC1 | 0.2 nM | 5.5 nM | 17% | 39 mL/min/kg
CC(C)N1CCC(c2cc3c(ccc(=O)n3-c3c(Cl)cccc3Cl)c(-c3ccccc3Cl)n2)CC1 | 1.3 nM | 4.9 nM | 32% | 51 mL/min/kg
CC1(C)CC(Nc2cc(-c3ccccc3Cl)c3c(c2)N(c2c(Cl)cccc2Cl)C(=O)NC3)CC(C)(C)N1 | 3.7 nM | 200 nM |  | 
O=c1ccc2c(-c3ccccc3Cl)nc(NC3CCNCC3)cc2n1-c1c(Cl)cccc1Cl | 0.2 nM | 18 nM |  | 
CN1C(C)(C)CC(Nc2cc3c(ccc(=O)n3-c3c(Cl)cccc3Cl)c(-c3ccccc3Cl)n2)CC1(C)C | 1.1 nM | 13 nM |  | 
